Data: US9073943B2, “Antiviral compounds with a dibenzooxaheterocycle moiety” (Lupin Limited, priority 2012, dated 2015)

What was measured:
[1] = system: Huh7.5/Con1/SG-Neo(I)hRluc2aUb cell line persistently expressing a bicistronic genotype 1b replicon; assay: HCV replicon assay, genotype 1b (Renilla luciferase readout); type: cell-based; details: Hepatitis C virus, genotype 1b replicon in Huh 7.5 cells, 72 h, read-out: Gt1b IC50
Excerpt: (§1) Anti-viral activity of the compounds of the invention was monitored using an HCV replicon assay. The Huh7.5/Con1/SG-Neo(I)hRluc2aUb cell line persistently expressing a bicistronic genotype 1b replicon in Huh 7.5 cells and the Huh7.5/J6/JFH1/EMCVIRES/hRlucNeo cell line expressing a bicistronic genotype 2a replicon in Huh 7.5 cells were obtained from Apath LLC. These cell lines were used to test inhibition of replicon levels by test compound using Renilla luciferase enzyme activity readout as a measure of viral replication efficiency.
(§2) Briefly, 7000-7500 cells were seeded in 96 well black clear bottom plates and allowed to adhere overnight. The next day each compound was added in triplicate to the cells at the desired concentration with a final DMSO concentration of 0.5%. Cells in media alone and cells incubated without drug with 0.5% DMSO served as controls. The plates were incubated for 72 h at 37° C. prior to running the luciferase assay. Enzyme activity was measured using Renilla-Glo Luciferase Assay kit from Promega as per the manufacturer's instructions. The following equation was used to generate the percent inhibition value for each test concentration.
(§3) The IC50 value was determined using GraphPad Prism and the following equation: Y=Bottom+(Top−Bottom)/(1+10^((LogIC50−X)*Hill slope))
(§4) IC50 values/% inhibitions of compounds were determined 2-3 times in the replicon assays.

[2] = system: Huh7.5/J6/JFH1/EMCVIRES/hRlucNeo cell line expressing a bicistronic genotype 2a replicon; assay: HCV replicon assay, genotype 2a (Renilla luciferase readout); type: cell-based; details: Hepatitis C virus, genotype 2a replicon in Huh 7.5 cells, 72 h, read-out: Gt2a IC50
Excerpt: as §1, §2, §3, §4

Compound | IC50 [1] [nM] | IC50 [2] [nM]
COC(=O)N[C@H](C(=O)N1CCC[C@H]1c1ncc(-c2ccc3c(c2)OCC(C)(C)COc2cc(-c4[nH]c([C@@H]5CCCN5C(=O)[C@@H](NC(=O)OC)C(C)C)nc4Cl)ccc2-3)[nH]1)C(C)C [Compound 6, methyl ((S)-1-((S)-2-(5-(11-(2-((S)-1-((S)-2-(methoxycarbonyl)amino-3-methylbutanoyl)pyrrolidin-2-yl)-4-chloro-1H-imidazol-5-yl)-7,7-dimethyl-7,8-dihydro-6H-dibenzo[f,h][1,5]dioxonin-3-yl)-1H-imidazol-2-yl)pyrrolidin-1-yl)-3-methyl-1-oxobutan-2-yl)carbamate] | 0.021 | 0.671
COC(=O)N[C@H](C(=O)N1CCC[C@H]1c1ncc(-c2ccc3c(c2)OCCCOc2cc(-c4[nH]c([C@@H]5CCCN5C(=O)[C@@H](NC(=O)OC)C(C)C)nc4Cl)ccc2-3)[nH]1)C(C)C [Compound 2, methyl ((S)-1-((S)-2-(5-(11-(2-((S)-1-((S)-2-(methoxycarbonyl)amino-3-methylbutanoyl)pyrrolidin-2-yl)-1H-imidazol-5-yl)-7,8-dihydro-6H-dibenzo[f,h][1,5]dioxonin-3-yl)-4-chloro-1H-imidazol-2-yl)pyrrolidin-1-yl)-3-methyl-1-oxobutan-2-yl)carbamate] | 0.051 | 0.053
COC(=O)N[C@H](C(=O)N1CCC[C@H]1c1nc(Cl)c(-c2ccc3c(c2)OCC(C)(C)COc2cc(-c4[nH]c([C@@H]5CCCN5C(=O)[C@@H](NC(=O)OC)C(C)C)nc4Cl)ccc2-3)[nH]1)C(C)C [Compound 7, dimethyl ((2S,2′S)-((2S,2′S)-2,2′-(5,5′-(7,7-dimethyl-7,8-dihydro-6H-dibenzo[f,h][1,5]dioxonine-3,11-diyl)bis(4-chloro-1H-imidazole-5,2-diyl))bis(pyrrolidine-2,1-diyl))bis(3-methyl-1-oxobutane-2,1-diyl))dicarbamate] | 0.004 | 0.249
COC(=O)N[C@H](C(=O)N1CCC[C@H]1c1nc(Cl)c(-c2ccc3c(c2)OCCCOc2cc(-c4[nH]c([C@@H]5CCCN5C(=O)[C@@H](NC(=O)OC)C(C)C)nc4Cl)ccc2-3)[nH]1)C(C)C [Compound 3, dimethyl ((2S,2′S)-((2S,2′S)-2,2′-(5,5′-(7,8-dihydro-6H-dibenzo[f,h][1,5]dioxonine-3,11-diyl)bis(4-chloro-1H-imidazole-5,2-diyl))bis(pyrrolidine-2,1-diyl))bis(3-methyl-1-oxobutane-2,1-diyl))dicarbamate] | 0.018 | 0.037
